Reference: patent publication US20080188560A1, “Cosmetic Compositions and Methods For Sensory Cooling” (priority 2004, published 2008)

Experiment: Cooling effect/cooling potential: heat of fusion by Differential Scanning Calorimeter
Type: physicochemical
Settings: Pyris 1 DSC, sample cooled to −10° C., heated 10° C. per minute up to 50° C., area under the peak
Description: Four samples of the composition are prepared with 10%, 20% and 40% of the stearyl heptanoate in three samples and 40% Marrix (C12-C15 Alkyl Furmurate) in a fourth sample. Each sample is first weighed and subsequently cooled to −10° C. A Calorimeter (Pyris 1 Differential Scanning Calorimeter from Perkin Elmer) is used to apply heat to each sample at one minute increments, 10° C. per minute up to 50° C. The Calorimeter measures the heat of the sample at each increment. The resulting readings of heat are plotted against time for each sample. The Calorimeter measures the area under the peak on the plot to calculate the Heat of fusion (J/g) for each sample. The heat of fusion for the sample is the energy required to melt the sample from a solid form to a liquid form. The heat of fusion for the sample identifies the amount of energy the sample can absorb. Therefore, to correlate to the cooling on the skin, the higher the heat of fusion of a sample/material, the more heat the sample/material will absorb from the skin upon application to correspondingly create a cooling sensation on the skin.

CCCCCCCCCCCCCCCCCCOC(=O)CCCCCC [Active alone, Stearyl Heptanoate]
(ΔH) Heat of fusion: 174.3 J/g
(ΔH) Heat of fusion (listed as active alone): 174.3 J/g
(ΔH) Heat of fusion (listed as stearyl heptanoate): 74.5 J/g
